Consider seven molecules from PMC6720714, “Structural and Biological Characterizations of Novel High-Affinity Fluorescent Probes with Overlapped and Distinctive Binding Regions on CXCR4” (Molecules, 2019).

Bridge positions count the residues as written; N and C are the ends. Square brackets hold non-standard residues; d marks the D form. Ends that are not written are not given here. Peptide text beside a SMILES is read from it. 2Nal = N[C@@H](Cc1ccc2ccccc2c1)C(=O)O; Lys(iPr) = CC(C)NCCCC[C@H](N)C(=O)O; Cit = NC(=O)NCCC[C@H](N)C(=O)O

Assay [1] concerns the target T1, CXCR4 (Homo sapiens, UniProt P61073). Nature of the assay: Three parallel CXCR4 competitive binding assays (FITC-CVX15, FITC-DV1, 12G5) compared. Also on record: expressed in transfected cells; host or cells: CHO (CHO-CXCR4, G418-selected). Particulars: for difference of IC50 values between the three binding systems: Type 1, relative to the minimum values. The method, then: (§1) Gradient concentrations of CXCR4 ligands were prepared with 1% BSA/PBS. CHO-CXCR4 cells were cultured and diluted into 5 × 10^5 cells/mL in 0.5% BSA/PBS. One hundred microliters of above cell solutions were added to each well of a 96-well plate and washed twice with 0.5% BSA/PBS. Cells were then incubated with 100 μL primary 12G5 Ab (1:2000, mouse anti-human CD184 antibody, BD Biosciences, CA, USA) in 0.5% BSA/PBS except for negative control group and gradient concentrations of CXCR4 ligands for 40 min on a shaker at 4 °C.

Assay [2] deals with T1, CXCR4. Nature of the assay: cell-based.
Assay [3] addresses T1, CXCR4. Nature of the assay: 12G5 antibody-based competitive binding assay on CHO-CXCR4 cells. Also on record: expressed in transfected cells; host or cells: CHO (CHO-CXCR4, G418-selected). The method, then: as §1
The target in assay [4] is T1, CXCR4. Nature of the assay: FITC-CVX15-based competitive binding assay on CHO-CXCR4 cells. Also on record: expressed in transfected cells; host or cells: CHO (CHO-CXCR4, G418-selected).
The target of assay [5] is CXC-type chemokine receptor 4 (CXCR4) (UniProt P61073). Nature of the assay: competitive binding on cells, fluorescence by microplate reader; FITC-DV1-based: CHO-CXCR4 cells, 1 μM FITC-DV1 with gradient concentrations of ligand in 1% BSA/PBS, 50 min, 4 °C, dark, washed twice; excitation 485 nm, emission 535 nm.
The target is the same in assay [6]. The experiment in a line: competitive binding on cells, fluorescence by microplate reader; FITC-CVX15-based: CHO-CXCR4 cells, 400 nM FITC-CVX15 with gradient concentrations of ligand in 1% BSA/PBS, 50 min, 4 °C, dark, washed twice; excitation 485 nm, emission 535 nm.
The target is the same in assay [7]. The experiment in a line: competitive binding on cells, fluorescence by microplate reader; 12G5-based: CHO-CXCR4 cells, antibody 12G5 (250 ng/mL; 1:2000) with gradient concentrations of ligand in 0.5% BSA/PBS, 40 min, 4 °C; FITC-conjugated goat anti-mouse IgG 30 min; excitation 485 nm, emission 535 nm.
For assay [8] the target is unchanged. The experiment in a line: saturation binding on cells, fluorescence by microplate reader.
Assay [9] has as its target T2, CXC-type chemokine receptor 4 (CXCR4) (UniProt P61073 1-352).
T2 construct: also called CD184; CHO-CXCR4
The experiment in a line: competitive binding on cells, fluorescence by microplate reader; FITC-CVX15-based: CHO-CXCR4 cells, 400 nM FITC-CVX15 with gradient concentrations of ligand in 1% BSA/PBS, 50 min, 4 °C, dark, washed twice; excitation 485 nm, emission 535 nm. Particulars: one partner purified.

The target in assay [10] is T2, CXC-type chemokine receptor 4 (CXCR4). The experiment in a line: competitive binding on cells, fluorescence by microplate reader; 12G5-based: CHO-CXCR4 cells, antibody 12G5 (250 ng/mL; 1:2000) with gradient concentrations of ligand in 0.5% BSA/PBS, 40 min, 4 °C; FITC-conjugated goat anti-mouse IgG 30 min; excitation 485 nm, emission 535 nm. Particulars: one partner purified.

The target is the same in assay [11]. The experiment in a line: competitive binding on cells, fluorescence by microplate reader; FITC-DV1-based: CHO-CXCR4 cells, 1 μM FITC-DV1 with gradient concentrations of ligand in 1% BSA/PBS, 50 min, 4 °C, dark, washed twice; excitation 485 nm, emission 535 nm. The following applies: one partner purified.

T1 sequence (P61073 whole entry): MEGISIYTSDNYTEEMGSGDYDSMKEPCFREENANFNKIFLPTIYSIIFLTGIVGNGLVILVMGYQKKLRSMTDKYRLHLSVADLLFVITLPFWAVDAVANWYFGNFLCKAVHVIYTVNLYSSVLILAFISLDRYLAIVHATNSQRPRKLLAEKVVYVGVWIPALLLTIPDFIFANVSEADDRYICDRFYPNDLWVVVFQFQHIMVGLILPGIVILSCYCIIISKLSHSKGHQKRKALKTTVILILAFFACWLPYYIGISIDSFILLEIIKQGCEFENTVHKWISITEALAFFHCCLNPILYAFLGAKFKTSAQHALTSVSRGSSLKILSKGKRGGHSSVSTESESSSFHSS
Sequence of CXC-type chemokine receptor 4 (CXCR4) (UniProt P61073) (P61073 whole entry): as above
T2 sequence (P61073 whole entry): as above

For the molecule `N=C(N)NCCC[C@@H]1NC(=O)[C@@H]2CSSC[C@H](NC(=O)[C@H](Cc3ccc4ccccc4c3)NC(=O)[C@H](CCCNC(=N)N)NC(=O)[C@H](CCCNC(=N)N)NC(=O)[C@H]3CCCN3C(=O)CNC1=O)C(=O)N[C@@H](Cc1ccc(O)cc1)C(=O)N[C@@H](CCC(N)=O)C(=O)N[C@@H](CCCCN)C(=O)N1CCC[C@@H]1C(=O)N1CCC[C@H]1C(=O)N[C@@H](Cc1ccc(O)cc1)C(=O)N[C@@H](CCCNC(=N)N)C(=O)N[C@@H](CCCNC(N)=O)C(=O)N2` [CVX15] (cyclo(RR[2Nal]CYQK[dP]PYR[Cit]CRG[dP]); disulfide 4-13), the “difference of IC50 values between the three binding systems” value at CXCR4 [1] is “less than two folds”.
Same read-out and setting: under `CC(C)C[C@@H](N)C(=O)NCC(=O)N[C@H](C)C(=O)N[C@H](CO)C(=O)N[C@H](Cc1c[nH]c2ccccc12)C(=O)N[C@H](Cc1c[nH]cn1)C(=O)N[C@H](CCCNC(=N)N)C(=O)N1CCC[C@@H]1C(=O)N[C@H](CC(=O)O)C(=O)N[C@H](CCCCN)C(=O)N[C@H](CS)C(=O)N[C@H](CS)C(=O)N[C@H](CC(C)C)C(=O)NCC(=O)N[C@H](Cc1ccc(O)cc1)C(=O)N[C@H](CCC(N)=O)C(=O)N[C@H](CCCCN)C(=O)N[C@H](CCCNC(=N)N)C(=O)N1CCC[C@@H]1C(=O)N[C@H](CC(C)C)C(=O)N1CCC[C@@H]1C(N)=O` [DV1] (H-[dL]G[dA][dS][dW][dH][dR][dP][dD][dK][dC][dC][dL]G[dY][dQ][dK][dR][dP][dL][dP]-NH2) stands “less than two folds”.
For the molecule `CC(C)NCCCC[C@H](NC(=O)[C@H]1CCC(=O)N[C@@H](Cc2ccccc2)C(=O)N[C@@H](Cc2ccc(O)cc2)C(=O)N[C@@H](CCCCNC(C)C)C(=O)N[C@H](CCCNC(=N)N)C(=O)N[C@@H](Cc2ccc3ccccc3c2)C(=O)NCC(=O)N1)C(N)=O` [LY2510924] (FY[Lys(iPr)][dR][2Nal]G[dE][Lys(iPr)]-NH2; lactam N-7), the “IC50 from 12G5-based assay versus IC50 from FITC-CVX15 and FITC-DV1 assays” value on CXCR4 [1] (Type 3) is “over two-fold higher”.
On to `CC(C)C[C@H](NC(=O)[C@H](CS)NC(=O)[C@H](CS)NC(=O)[C@H](CCCCN)NC(=O)[C@H](CC(=O)O)NC(=O)[C@@H]1CCCN1C(=O)[C@H](CCCNC(=N)N)NC(=O)[C@H](Cc1c[nH]cn1)NC(=O)[C@H](Cc1c[nH]c2ccccc12)NC(=O)[C@H](CO)NC(=O)[C@H](C)NC(=O)CNC(=O)[C@@H](N)CC(C)C)C(=O)NCC(=O)N[C@@H](Cc1ccc(O)cc1)C(=O)N[C@@H](CCC(N)=O)C(=O)N[C@@H](CCCCN)C(=O)N[C@@H](CCCNC(=N)N)C(=O)N1CCC[C@H]1C(=O)N[C@@H](CC(C)C)C(=O)N1CCC[C@H]1C(=O)O` [V1] (H-LGASWHRPDKCCLGYQKRPLP-OH), for which the IC50 on CXCR4 [2] is 676 nM; on CXCR4 [3], 712 nM; on CXCR4 [4], 687 nM. At CXCR4 [1], the “difference of IC50 values between the three binding systems” value is listed as “less than two folds”.
CVX15 (peptide): the IC50 turned out to be 6.8 nM in [5], 6.2 nM in assay [6] and 6 nM in assay [7].
The molecule FITC-CVX15 (peptide) showed a concentration at which the fluorescent signal reached a plateau in [8] of 400 nM.

B1: DV1 dimer (peptide)
chain: [dL]G[dA][dS][dW][dH][dR][dP][dD][dK][dC][dC][dL]G[dY][dQ][dK][dR][dP][dL][dP]
modifications: cysteine pairing not given here; also: dimer (linkage not given here)
For the molecule B1, the IC50 is 29.4 nM in assay [9], 67 nM in assay [10] and 25.6 nM in assay [11].
